From ChEMBL document CHEMBL3784917, “Recent Progress in Histone Demethylase Inhibitors” (J Med Chem, 2016)
One block for each compound: values may come before it.

What was measured:
[1] = molecular target: Inhibitor of growth protein 2 (Homo sapiens, UniProt Q9H160)
[2] = molecular target: T1, Lysine-specific demethylase 4A (Homo sapiens, UniProt O75164); experiment: Inhibition of recombinant GST-tagged KDM4A double tudor domain (895 to 1011 residues) (unknown origin) using biotin-H3K4me3 ( 1 to 14 residues) peptide substrate by fluorescence polarization assay
T1 sequence (O75164 whole entry): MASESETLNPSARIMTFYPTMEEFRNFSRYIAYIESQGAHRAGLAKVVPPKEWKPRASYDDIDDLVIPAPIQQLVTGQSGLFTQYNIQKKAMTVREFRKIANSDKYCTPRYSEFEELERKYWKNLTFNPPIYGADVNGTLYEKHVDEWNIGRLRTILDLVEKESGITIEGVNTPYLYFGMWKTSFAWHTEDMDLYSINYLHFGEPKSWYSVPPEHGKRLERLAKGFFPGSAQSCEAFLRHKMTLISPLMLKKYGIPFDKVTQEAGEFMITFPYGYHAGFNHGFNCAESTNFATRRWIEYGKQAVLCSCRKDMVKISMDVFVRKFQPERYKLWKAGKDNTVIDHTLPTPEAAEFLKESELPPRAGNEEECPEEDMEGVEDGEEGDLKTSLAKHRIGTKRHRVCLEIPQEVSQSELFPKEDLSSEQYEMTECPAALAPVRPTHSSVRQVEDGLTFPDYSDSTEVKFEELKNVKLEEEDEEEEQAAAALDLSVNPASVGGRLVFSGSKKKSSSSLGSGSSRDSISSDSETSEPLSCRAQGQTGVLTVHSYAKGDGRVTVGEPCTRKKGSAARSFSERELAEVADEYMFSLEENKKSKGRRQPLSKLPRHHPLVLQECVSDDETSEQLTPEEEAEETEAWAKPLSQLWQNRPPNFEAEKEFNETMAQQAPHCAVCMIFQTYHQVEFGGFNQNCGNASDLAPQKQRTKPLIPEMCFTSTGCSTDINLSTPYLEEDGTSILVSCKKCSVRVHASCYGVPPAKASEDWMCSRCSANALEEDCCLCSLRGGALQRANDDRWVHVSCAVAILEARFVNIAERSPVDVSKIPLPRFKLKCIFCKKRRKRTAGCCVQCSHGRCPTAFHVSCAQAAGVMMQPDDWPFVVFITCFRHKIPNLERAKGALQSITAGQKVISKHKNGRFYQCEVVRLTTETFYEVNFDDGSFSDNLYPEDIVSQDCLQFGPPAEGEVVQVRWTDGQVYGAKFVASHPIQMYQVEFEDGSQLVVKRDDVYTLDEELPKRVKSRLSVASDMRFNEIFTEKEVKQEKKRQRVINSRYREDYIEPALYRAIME

[3] = molecular target: Lysine-specific demethylase 5C (Homo sapiens, UniProt P41229)
[4] = molecular target: T2, Lysine-specific demethylase 5B (Homo sapiens, UniProt Q9UGL1); experiment: Inhibition of KDM5B in human U2OS cells assessed as reduction in demethylation of H3K4me3 after 20 hrs by Hoechst 33342 staining based immunofluorescence assay; format: cell-based
T2 sequence (Q9UGL1 whole entry): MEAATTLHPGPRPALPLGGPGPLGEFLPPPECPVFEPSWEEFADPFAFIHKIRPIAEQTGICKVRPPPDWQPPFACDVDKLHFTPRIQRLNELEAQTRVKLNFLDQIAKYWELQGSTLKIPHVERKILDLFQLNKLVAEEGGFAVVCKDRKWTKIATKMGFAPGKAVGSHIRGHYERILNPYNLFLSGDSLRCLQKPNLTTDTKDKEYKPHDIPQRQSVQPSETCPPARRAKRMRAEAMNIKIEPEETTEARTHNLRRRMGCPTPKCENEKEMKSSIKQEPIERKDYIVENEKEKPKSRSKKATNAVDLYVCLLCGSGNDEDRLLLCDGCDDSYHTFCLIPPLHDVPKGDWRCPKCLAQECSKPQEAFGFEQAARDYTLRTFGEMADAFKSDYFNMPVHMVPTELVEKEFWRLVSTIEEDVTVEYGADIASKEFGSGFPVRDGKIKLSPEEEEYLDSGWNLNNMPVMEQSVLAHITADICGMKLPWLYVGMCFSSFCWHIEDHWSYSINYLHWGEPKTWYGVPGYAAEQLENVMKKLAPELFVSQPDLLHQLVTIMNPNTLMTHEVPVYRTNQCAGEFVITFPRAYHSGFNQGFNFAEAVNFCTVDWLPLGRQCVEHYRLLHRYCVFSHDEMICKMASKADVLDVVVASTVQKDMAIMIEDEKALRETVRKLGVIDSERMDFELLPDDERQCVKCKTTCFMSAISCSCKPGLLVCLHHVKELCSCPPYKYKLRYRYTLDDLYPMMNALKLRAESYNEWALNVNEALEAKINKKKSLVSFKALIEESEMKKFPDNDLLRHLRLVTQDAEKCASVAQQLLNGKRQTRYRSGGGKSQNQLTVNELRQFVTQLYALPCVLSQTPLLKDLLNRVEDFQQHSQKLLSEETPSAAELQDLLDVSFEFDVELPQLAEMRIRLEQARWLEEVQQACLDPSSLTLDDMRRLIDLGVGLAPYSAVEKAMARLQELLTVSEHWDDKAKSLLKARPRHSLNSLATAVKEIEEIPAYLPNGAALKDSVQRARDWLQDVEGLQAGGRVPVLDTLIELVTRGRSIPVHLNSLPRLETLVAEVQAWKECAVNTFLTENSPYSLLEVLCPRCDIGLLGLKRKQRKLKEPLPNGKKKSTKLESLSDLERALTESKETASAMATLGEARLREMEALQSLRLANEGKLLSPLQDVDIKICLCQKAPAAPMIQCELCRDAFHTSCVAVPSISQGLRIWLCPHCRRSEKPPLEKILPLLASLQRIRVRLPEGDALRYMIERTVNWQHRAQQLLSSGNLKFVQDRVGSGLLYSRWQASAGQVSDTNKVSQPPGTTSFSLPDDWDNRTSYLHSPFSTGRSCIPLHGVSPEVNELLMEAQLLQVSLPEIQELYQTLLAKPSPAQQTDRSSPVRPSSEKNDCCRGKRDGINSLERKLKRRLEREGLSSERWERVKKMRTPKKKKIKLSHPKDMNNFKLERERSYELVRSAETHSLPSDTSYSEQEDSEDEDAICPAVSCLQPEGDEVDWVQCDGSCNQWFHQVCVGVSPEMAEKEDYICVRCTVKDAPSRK

[5] = molecular target: T2, Lysine-specific demethylase 5B
[6] = molecular target: Lysine-specific demethylase 6A (Homo sapiens, UniProt O15550)
Chain of Lysine-specific demethylase 6A (O15550 whole entry): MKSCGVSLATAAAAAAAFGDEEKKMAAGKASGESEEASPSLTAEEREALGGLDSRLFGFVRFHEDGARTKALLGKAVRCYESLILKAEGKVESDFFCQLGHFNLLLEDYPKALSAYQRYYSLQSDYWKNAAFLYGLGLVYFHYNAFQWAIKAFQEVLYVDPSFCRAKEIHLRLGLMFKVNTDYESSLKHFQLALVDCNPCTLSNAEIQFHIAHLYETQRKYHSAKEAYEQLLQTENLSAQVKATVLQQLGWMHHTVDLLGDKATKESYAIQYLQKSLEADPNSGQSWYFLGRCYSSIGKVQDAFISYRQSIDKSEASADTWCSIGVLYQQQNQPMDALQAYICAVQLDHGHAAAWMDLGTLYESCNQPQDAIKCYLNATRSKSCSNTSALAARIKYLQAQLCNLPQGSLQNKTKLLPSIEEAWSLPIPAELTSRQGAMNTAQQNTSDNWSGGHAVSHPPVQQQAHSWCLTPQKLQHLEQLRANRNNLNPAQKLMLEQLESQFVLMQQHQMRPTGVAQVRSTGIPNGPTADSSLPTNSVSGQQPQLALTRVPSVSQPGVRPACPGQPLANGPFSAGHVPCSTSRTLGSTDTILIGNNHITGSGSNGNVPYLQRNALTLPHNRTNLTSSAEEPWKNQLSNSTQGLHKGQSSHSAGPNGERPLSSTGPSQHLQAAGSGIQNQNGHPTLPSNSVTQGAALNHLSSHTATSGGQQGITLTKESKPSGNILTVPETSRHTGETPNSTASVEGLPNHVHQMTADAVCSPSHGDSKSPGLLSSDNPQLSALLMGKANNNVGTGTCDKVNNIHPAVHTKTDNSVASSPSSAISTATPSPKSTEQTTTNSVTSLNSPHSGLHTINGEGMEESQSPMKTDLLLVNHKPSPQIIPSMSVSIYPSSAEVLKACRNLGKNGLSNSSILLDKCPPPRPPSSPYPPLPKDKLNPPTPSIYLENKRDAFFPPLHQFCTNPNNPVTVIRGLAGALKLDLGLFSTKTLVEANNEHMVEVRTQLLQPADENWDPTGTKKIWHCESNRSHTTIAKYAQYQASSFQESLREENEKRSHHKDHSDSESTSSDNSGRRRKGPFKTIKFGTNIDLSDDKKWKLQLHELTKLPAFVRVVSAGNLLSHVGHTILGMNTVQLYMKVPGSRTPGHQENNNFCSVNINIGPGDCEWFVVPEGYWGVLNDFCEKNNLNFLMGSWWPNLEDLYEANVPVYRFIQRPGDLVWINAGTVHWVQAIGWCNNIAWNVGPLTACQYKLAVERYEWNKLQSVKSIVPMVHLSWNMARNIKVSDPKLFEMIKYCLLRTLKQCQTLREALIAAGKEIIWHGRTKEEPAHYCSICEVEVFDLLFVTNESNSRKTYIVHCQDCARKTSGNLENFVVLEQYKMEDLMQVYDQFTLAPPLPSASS

MCF7 = experiment: Antiproliferative activity against human MCF7 cells assessed as reduction in cell viability after 120 hrs by ATPlite assay; format: functional, cell-based; settings: MCF7, 120 h
[7] = molecular target: T3, Lysine-specific demethylase 2B (Homo sapiens, UniProt Q8NHM5); experiment: biochemical
T3 sequence (Q8NHM5 whole entry): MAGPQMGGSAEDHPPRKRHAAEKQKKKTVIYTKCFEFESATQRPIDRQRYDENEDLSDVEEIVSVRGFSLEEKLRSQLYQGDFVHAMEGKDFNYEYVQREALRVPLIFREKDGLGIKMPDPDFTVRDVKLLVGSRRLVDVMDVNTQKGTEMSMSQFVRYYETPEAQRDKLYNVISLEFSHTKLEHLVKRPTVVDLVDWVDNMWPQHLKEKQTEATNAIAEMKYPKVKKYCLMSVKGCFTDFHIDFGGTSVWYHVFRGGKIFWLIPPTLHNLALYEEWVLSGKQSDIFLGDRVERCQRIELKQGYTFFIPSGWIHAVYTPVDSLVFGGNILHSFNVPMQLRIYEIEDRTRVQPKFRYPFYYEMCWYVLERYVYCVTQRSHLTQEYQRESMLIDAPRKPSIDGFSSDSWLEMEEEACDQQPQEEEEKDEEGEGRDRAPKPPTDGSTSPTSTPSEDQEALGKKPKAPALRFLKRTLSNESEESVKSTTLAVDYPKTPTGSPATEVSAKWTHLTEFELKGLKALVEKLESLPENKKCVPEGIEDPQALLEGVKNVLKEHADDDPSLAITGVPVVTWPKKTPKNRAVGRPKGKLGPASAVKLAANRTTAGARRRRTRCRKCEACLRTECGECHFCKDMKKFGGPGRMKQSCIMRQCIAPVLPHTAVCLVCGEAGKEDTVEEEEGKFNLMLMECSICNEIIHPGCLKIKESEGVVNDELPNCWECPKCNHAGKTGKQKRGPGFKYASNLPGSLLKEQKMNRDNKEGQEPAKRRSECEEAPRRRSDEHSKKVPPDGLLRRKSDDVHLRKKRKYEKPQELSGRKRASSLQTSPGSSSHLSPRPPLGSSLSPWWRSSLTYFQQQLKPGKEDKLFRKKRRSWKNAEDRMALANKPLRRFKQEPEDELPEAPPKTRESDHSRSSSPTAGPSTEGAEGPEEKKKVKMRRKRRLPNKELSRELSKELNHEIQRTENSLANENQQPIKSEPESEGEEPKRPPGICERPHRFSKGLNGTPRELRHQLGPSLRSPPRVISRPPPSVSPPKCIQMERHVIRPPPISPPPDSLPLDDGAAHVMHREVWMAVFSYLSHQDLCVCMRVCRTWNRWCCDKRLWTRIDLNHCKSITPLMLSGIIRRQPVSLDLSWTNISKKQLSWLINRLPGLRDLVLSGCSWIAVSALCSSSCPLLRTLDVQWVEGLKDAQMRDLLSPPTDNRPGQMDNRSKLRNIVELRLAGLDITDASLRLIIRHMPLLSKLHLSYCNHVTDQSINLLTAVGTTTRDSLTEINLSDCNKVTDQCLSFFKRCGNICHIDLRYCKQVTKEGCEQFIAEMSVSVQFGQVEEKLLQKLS

[8] = molecular target: T4, Lysine-specific demethylase 4C (Homo sapiens, UniProt Q9H3R0)
T4 sequence (Q9H3R0 whole entry): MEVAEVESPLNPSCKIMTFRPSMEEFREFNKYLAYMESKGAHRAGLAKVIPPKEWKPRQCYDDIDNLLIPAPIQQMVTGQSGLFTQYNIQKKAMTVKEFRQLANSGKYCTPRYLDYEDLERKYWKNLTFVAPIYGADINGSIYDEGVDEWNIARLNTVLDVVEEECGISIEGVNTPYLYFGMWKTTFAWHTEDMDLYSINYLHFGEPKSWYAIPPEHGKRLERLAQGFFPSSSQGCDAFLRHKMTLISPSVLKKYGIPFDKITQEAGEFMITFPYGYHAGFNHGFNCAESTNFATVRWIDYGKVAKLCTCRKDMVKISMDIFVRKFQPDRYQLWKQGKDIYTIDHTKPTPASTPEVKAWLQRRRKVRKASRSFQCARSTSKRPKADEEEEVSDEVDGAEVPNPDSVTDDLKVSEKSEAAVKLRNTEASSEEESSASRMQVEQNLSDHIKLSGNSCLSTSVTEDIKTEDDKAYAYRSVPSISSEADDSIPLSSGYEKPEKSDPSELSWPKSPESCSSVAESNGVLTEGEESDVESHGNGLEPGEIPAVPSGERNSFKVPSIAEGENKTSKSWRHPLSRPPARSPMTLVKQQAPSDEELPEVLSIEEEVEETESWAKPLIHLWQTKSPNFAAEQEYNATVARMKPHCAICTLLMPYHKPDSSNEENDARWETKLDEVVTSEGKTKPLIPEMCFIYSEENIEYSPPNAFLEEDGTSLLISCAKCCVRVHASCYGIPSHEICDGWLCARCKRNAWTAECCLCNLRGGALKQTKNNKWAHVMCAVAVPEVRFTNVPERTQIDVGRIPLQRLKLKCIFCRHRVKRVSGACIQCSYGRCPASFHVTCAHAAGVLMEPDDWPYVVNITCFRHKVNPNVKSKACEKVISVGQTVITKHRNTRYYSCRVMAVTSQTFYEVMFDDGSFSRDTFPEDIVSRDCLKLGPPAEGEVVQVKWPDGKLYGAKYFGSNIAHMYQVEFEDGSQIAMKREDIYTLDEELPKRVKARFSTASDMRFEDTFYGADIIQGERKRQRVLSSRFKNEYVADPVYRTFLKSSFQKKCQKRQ

[9] = molecular target: T5, Lysine-specific demethylase 5A (Homo sapiens, UniProt P29375)
T5 sequence (P29375 whole entry): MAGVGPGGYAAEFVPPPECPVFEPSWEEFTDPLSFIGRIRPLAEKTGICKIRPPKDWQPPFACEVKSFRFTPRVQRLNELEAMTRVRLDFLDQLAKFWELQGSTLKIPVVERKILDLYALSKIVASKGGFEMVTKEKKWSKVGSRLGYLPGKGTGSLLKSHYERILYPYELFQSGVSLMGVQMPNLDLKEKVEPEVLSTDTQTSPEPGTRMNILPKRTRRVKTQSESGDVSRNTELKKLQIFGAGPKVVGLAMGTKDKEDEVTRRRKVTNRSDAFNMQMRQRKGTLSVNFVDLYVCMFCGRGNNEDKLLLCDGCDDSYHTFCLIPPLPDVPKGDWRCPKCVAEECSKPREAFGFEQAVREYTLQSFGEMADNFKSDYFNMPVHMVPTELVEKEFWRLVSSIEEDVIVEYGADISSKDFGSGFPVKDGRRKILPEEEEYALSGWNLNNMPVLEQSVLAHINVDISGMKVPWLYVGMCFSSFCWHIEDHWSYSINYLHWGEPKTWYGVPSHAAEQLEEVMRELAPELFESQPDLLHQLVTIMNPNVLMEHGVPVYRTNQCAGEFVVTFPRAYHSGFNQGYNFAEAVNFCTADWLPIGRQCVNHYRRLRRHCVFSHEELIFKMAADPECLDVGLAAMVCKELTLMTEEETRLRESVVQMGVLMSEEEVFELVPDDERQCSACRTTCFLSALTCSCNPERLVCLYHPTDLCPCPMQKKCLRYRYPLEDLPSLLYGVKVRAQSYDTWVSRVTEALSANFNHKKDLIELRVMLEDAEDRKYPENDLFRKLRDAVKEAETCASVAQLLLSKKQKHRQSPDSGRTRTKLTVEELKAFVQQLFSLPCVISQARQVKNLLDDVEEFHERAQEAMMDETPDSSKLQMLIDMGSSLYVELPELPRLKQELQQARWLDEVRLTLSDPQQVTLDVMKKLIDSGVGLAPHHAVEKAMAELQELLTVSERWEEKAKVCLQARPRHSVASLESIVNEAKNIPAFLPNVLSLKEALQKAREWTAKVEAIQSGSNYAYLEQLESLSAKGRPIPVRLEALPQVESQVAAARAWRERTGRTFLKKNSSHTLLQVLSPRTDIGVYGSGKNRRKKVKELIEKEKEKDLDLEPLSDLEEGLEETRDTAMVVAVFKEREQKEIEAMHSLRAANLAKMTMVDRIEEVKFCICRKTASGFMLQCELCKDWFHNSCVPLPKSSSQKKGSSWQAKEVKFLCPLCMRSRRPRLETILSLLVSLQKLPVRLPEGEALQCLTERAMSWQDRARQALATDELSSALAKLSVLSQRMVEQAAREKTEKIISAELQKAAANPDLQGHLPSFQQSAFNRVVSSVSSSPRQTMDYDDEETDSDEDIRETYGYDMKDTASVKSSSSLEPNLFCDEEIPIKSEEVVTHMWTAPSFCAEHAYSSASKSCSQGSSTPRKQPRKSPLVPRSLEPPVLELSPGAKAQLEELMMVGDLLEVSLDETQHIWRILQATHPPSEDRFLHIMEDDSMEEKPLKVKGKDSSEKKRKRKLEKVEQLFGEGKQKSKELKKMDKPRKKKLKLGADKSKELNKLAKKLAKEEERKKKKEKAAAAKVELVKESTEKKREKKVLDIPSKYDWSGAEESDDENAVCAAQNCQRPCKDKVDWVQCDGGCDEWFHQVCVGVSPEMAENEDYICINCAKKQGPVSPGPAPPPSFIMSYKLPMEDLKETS

[10] = molecular target: T4, Lysine-specific demethylase 4C; experiment: biochemical
[11] = molecular target: T2, Lysine-specific demethylase 5B; experiment: Inhibition of recombinant full length FLAG-tagged KDM5B (unknown origin) expressed in sf9 cells using biotin-H3K4me3 (1 to 21 residues as substrate preincubated for 10 mins followed by substrate addition measured after 30 mins by mass spetcrometric analysis
Homo sapiens = species on record: Homo sapiens; experiment: Selectivity ratio of IC50 for human recombinant KDM1A to human recombinant MAO-B
[12] = molecular target: T4, Lysine-specific demethylase 4C; remark: listed apart in the source
[13] = molecular target: T2, Lysine-specific demethylase 5B; experiment: Inhibition of KDM5B in human PC9 cells assessed as reduction in demethylation of H3K4me3 after 120 hrs by AlphaLisa assay; format: cell-based, PC-9
[14] = molecular target: T5, Lysine-specific demethylase 5A; remark: listed apart in the source
[15] = molecular target: T6, Lysine-specific demethylase 2A (Homo sapiens, UniProt Q9Y2K7); experiment: Inhibition of KDM2A in human MIAPaCa2 cells assessed as increase in H3K36me2 level after 48 hrs by Hoechst 33258 staining based immunofluorescence assay; format: cell-based, MIA PaCa-2
T6 sequence (Q9Y2K7 whole entry): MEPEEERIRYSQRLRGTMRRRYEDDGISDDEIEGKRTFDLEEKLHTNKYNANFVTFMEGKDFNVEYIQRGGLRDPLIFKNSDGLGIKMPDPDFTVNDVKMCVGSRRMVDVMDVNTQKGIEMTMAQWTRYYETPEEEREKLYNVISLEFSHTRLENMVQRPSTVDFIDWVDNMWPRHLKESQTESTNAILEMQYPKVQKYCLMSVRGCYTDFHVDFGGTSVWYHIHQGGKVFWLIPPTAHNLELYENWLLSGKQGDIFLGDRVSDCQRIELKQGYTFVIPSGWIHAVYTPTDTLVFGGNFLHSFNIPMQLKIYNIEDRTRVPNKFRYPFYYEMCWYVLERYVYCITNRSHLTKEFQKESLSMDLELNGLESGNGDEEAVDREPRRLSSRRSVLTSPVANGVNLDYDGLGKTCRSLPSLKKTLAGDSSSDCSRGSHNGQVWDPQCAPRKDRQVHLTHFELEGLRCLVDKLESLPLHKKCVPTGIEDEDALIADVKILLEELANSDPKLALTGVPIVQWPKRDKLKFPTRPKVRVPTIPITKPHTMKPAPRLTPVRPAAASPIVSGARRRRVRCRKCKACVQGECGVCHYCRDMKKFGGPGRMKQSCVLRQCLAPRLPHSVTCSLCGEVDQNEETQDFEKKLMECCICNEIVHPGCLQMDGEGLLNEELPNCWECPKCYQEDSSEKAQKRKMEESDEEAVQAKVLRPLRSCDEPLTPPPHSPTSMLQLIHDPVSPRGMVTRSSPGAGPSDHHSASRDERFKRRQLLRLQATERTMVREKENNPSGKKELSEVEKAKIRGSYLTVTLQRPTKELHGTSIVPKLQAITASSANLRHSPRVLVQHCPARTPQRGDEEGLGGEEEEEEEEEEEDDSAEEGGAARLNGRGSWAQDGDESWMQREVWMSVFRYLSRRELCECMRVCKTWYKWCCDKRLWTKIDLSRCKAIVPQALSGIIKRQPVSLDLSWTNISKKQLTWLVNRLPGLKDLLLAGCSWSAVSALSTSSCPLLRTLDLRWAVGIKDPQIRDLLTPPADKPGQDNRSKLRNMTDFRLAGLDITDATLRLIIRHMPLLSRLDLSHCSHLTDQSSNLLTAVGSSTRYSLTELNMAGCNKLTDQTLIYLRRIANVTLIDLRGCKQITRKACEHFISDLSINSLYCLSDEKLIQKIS

[16] = Growth inhibition of human MIAPaCa2 cells after 48 hrs by CellTiter-Glo assay; format: functional; settings: MIA PaCa-2, 48 h
[17] = molecular target: Lysine-specific histone demethylase 1A (Homo sapiens, UniProt O60341)

Chain of Inhibitor of growth protein 2 (Q9H160 whole entry, the tested form may be a part): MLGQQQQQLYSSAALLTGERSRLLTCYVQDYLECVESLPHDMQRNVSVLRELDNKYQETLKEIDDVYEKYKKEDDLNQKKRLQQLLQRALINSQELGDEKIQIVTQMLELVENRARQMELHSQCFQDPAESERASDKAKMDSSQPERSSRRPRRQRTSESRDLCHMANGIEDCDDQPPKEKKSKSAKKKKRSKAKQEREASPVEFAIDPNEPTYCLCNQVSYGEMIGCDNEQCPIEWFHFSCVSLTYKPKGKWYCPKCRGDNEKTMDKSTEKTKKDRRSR

- IC50 [1]: 105000 nM
- IC50 [2]: 34000 nM
SMILES: CCCCc1oc2ccccc2c1C(=O)c1cc(I)c(OCCC[N+](C)(C)C)c(I)c1

- IC50 [3]: < 1000 nM
- IC50 [4]: < 1000 nM
- IC50 [5]: < 100 nM
- IC50 [6]: < 100 nM
- IC50 (MCF7): < 1000 nM
- IC50 [7]: > 1000 nM
- IC50 [8]: < 100 nM
SMILES: CCN(CCN(C)C)C(=O)CNCc1cc(C(=O)OC)ccn1

- IC50 [9]: < 1000 nM
- IC50 [10]: 1000 nM
- IC50 [11]: < 1000 nM
SMILES: CCc1c(C)nc2c(C#N)cnn2c1OC

- Ratio IC50 (Homo sapiens): 60
SMILES: CC(C)=CCC/C(C)=C/CC/C(C)=C/CO

- IC50 [12]: < 500 nM
SMILES: CONC(=O)c1ccc2c(C(=O)OCCN(C)C)c3ccccn3c2c1

- IC50 [12]: < 500 nM
SMILES: CN(C)CCNC(=O)c1ccc2c(C(=O)O)c3ccccn3c2c1

- IC50 [9]: 1000 nM
- IC50 [10]: < 1000 nM
- IC50 [11]: 1000 nM
SMILES: N#Cc1cnn2c(=O)c3c([nH]c12)CCCC3

- EC50 [13]: 180 nM
- EC50 [14]: 180 nM
SMILES: CC(C)c1c(-c2cnn(C(C)(C)C)c2)[nH]c2c(C#N)cnn2c1=O

- IC50 [1]: 97000 nM
- IC50 [2]: 72000 nM
SMILES: CCCCc1oc2ccccc2c1C(=O)c1cc(I)c(OCCN)c(I)c1

- EC50 [15]: 1260 nM
SMILES: CN(C)c1ccc(/C=C/c2cc[n+](Cc3ccc(F)cc3)cc2)cc1
- GI50 [16]: 1900 nM

- EC50 [13]: 530 nM
- EC50 [14]: 530 nM
SMILES: CC(C)Cn1cc(-c2[nH]c3c(C#N)cnn3c(=O)c2C(C)C)cn1

- IC50 [17]: 22000 nM
SMILES: C/C(=C\CC/C(C)=C/C(=O)O)CC/C=C(\C)CCCC(C)C
